Assay results reported in US10676436B2, “NLRX1 ligands” (Landos Biopharma, Inc., priority 2018, dated 2020).

How the values were obtained:
CD4+ T cells = assay: Immunological screening in vitro in CD4+ splenocytes, flow cytometry; type: cell-based, C57BL/6 mice
Excerpt: Spleens were excised from C57BL/6 mice. Spleens were crushed between the frosted ends of microscope slides and filtered to provide a cellular suspension. Red blood cells were lysed through hypotonic lysis. Remaining cells were washed and filtered. CD4+ T cells were enriched within the suspension using magnetic sorting based negative selection. Cells were collected and plated within 96 well plates coated with anti-CD3 and cultured in the presence of NX-13, NX-37, NX-43, NX-44, or NX-50 at 0, 0.1, 1 or 10 micromolar; NX-53, NX-54, NX-55, or NX-56 at 0, 0.1, or 1 micromolar; or NX-45 at 10, 50 or 100 nanomolar for 48 h. During the last 6 h of culture, cells were stimulated with phorbol 12-myristate-13-acetate (PMA) and ionomycin.
Cells were collected from 96 well plates and stained with a cocktail of antibodies for immunophenotyping by flow cytometry. Culture supernatant was collected and assayed for cytokine concentrations by cytometric bead array. Data was captured on a BD FACS Celesta and analyzed using FacsDiva.

[1] = system: peripheral blood mononuclear cells (PBMCs) of Crohn's disease patients; assay: Ex vivo treatment of PBMCs of Crohn's disease patients, flow cytometry; type: cell-based, human
Procedure: (§1) Samples were obtained from male and female donors clinically categorized as having moderate to severe disease. Age and current medications were not used as exclusion criteria. Whole blood was collected into heparinized vacuum tubes. Whole blood was diluted 1:3 volumes with sterile phosphate buffered saline. LeucoSep (Greiner) were prepared by addition of Lymphocyte Separation Media followed by 15 second centrifugation at max speed. Diluted whole blood was added to LeucoSep tubes. After centrifugation (2000×g, 20 min), PBMCs were collected from the interphase by Pasteur pipette. Remaining red blood cells were lysed by hypotonic lysis and suspension was filtered through a […] cell strainer. PBMCs were washed and re-suspended in sterile cell culture media, RPMI containing 10% fetal bovine serum, 2.5% Hepes solution, 1% L-glutamine, 1% penicillin/streptomycin, 1% sodium pyruvate, and 1% essential amino acids (complete RPMI).
(§2) Target cells were incubated for 24 h in complete RPMI culture media at 37° C. Cells were incubated in the presence of NX-13 ranging in concentration from 1 nM to 100 nM. NX-13 stock solution was prepared at 100 mM in dimethyl sulfoxide (DMSO) and diluted to desired concentration in culture media. DMSO concentrations were adjusted to be equal across all doses and vehicle treatments. Six hours prior to assay, cells were stimulated with phorbol 12-myristate 13-acetate (PMA) and ionomycin to stimulate cellular activation. Cells were assayed for desired data at 24 h.
(§3) Prior to collection, cells were incubated BD GolgiStop (2 μL GolgiStop to 3 mL of total media) to allow intracellular accumulation of cytokines. Cells were live stained with extracellular (CD45, CD3, CD4, CD8, CD11b) and intracellular (FOXP3, IL-10, IL-4, IFNγ, TNFα) in a sequential manner. Data was acquired on a BD FACs Celesta and analyzed using FACSDiva. Non-viable and non-singlet cells were excluded from analysis. Data is presented as percentage of CD45+ cells or % viable, singlets.

DSS model of colitis = DSS model of colitis (acute model of IBD); type: in vivo, mice
Procedure: Mice were given 8% (w/v) DSS in drinking water for seven days to induce disruption of the epithelial layer. At project initiation, mice were 8 weeks of age and began dosing 24 hours after being placed on 8% DSS. Mice were weighed and scored daily for symptoms of disease (diarrhea, rectal bleeding, rectal inflammation, overall behavior). Treatment administration. NX-13 was prepared within a 0.5% methylcellulose (12-15 cP) solution. Dosage used was 20 mg/kg delivered once daily. Mice were weighed on a weekly basis to update dosage formulation. Dosage was calculated based off mean body weights for each gender. Oral dosage was delivered by orogastric gavage of dosage in 0.2 mL volume. Colons were collected into RPMI/FBS buffer containing collagenase (300 U/mL) and DNase (50 U/mL) for digestion. Tissues were digested for 60 minutes under stirring at 37° C. Resultant cellular suspensions were filtered through 100 μm strainers, centrifuged (300×g, 8 min), and washed in fresh RPMI. Following filtration of the resulting single cell suspensions, immune cells were purified by Percoll gradient of cell-containing 40% Percoll overlayed onto 70% Percoll solution. After centrifugation, interphase was collected and washed to obtain enriched colonic lamina propria cell fractions. Cells were labeled with mixtures of extracellular (CD45, CD3, CD4, CD8, CD19, NK1.1, CD25, F4/80, CD11b, Gr1, CX3CR1, CD64) and intracellular (Tbet, RORγT, FOXP3, IFNγ, IL17, IL10) antibodies in a sequential live staining in 96-well plates. Data was acquired using a FACS Celesta flow cytometer with FACSDiva software. Total RNA from colon and cells was generated using the Qiagen RNeasy mini kit. cDNA was generated using the BioRad iScript cDNA synthesis kit. Standard curves were generated by serial dilution of purified product from a standard PCR reaction with Taq DNA polymerase followed by purification using the Qiagen MinElute PCR purification kit. Expression levels were obtained from quantitative real-time PCR with SybrGreen supermix on a BioRad CFX96 Thermal cycler followed by normalization to expression of β-actin.

[2] = system: peripheral blood mononuclear cells (PBMCs) of ulcerative colitis patients; assay: Ex vivo treatment of PBMCs of ulcerative colitis patients, flow cytometry; type: cell-based, human
Procedure: as §1, §2, §3

[3] = wild-type cells, 48 h, PMA and ionomycin
[4] = PBMCs from Crohn's disease patients
[5] = day 7 of DSS challenge, qRT-PCR, normalized to beta-actin
[6] = oral 20 mg/kg, day 7 of DSS challenge, flow cytometry
[7] = ulcerative colitis samples, 1 nM
[8] = ulcerative colitis samples, 1 to 100 nM, 24 h

Cc1cccc(Oc2cc(Oc3cccc(C)n3)cc(Oc3cccc(C)n3)c2)n1 [NX-13, 1,3,5-tris (6-methylpyridin-2-yloxy) benzene]
function at NLRX1 concluded from the cytokine results (CD4+ T cells): activators of NLRX1 | effects on IFNγ and TNFα producing CD4+ T cells in the absence of NLRX1 (CD4+ T cells; NLRX1 deficient cells): these effects were lost | proportion of IFNγ producing (IFNγ+) CD4+ T cells (CD4+ T cells; [3]): reduced | proportion of TNFα producing (TNFα+) CD4+ T cells (CD4+ T cells; [3]): reduced | concentrations at which IFNγ+ cells decreased [1]: above 50 nM | concentrations at which IL10+ CD4+ T cells increased [1]: ≥ 50 nM | IFNγ+ cells [1, 4]: Dose dependent decreases | IL-4 producing CD4+ T cells [1, 4]: potently decreased | TNFα producing CD4+ T cells [1, 4]: potently decreased | percentage of IL10+ CD4+ T cells [1, 4]: increased | concentrations at which IL-4 producing CD4+ T cells decreased ([1]; as low as): ≥ 10 nM | concentrations at which TNFα producing CD4+ T cells decreased ([1]; as low as): ≥ 10 nM | expression of Ifng in the whole colon (DSS model of colitis; [5]): reduced | expression of Tnfa in the whole colon (DSS model of colitis; [5]): reduced | maximal observed reduction of disease activity (DSS model of colitis; oral 20 mg/kg once daily, day 6): 50% | number of FOXP3+ regulatory CD4+ T cells (DSS model of colitis; oral 20 mg/kg, colon): did not reduce | reduction of Th1 cells in the colonic lamina propria (DSS model of colitis; [6]): more than 50% | reduction of neutrophils in the colonic lamina propria (DSS model of colitis; [6]): more than 50% | amount of TNFα present in each cell (mean fluorescent intensity) ([2]; in a dose dependent manner): reduced | concentrations with significant reductions of IFNγ producing cells ([2]; ulcerative colitis samples): ≥ 10 nM | concentrations with significant reductions of TNFα producing cells ([2]; ulcerative colitis samples): ≥ 10 nM | IFNγ producing cells at 1 nM [2, 7]: significant decrease | TNF producing cells at 1 nM [2, 7]: significant reductions were not observed | percentage of IFNγ producing CD4+ T cells [2, 8]: decreased | percentage of TNFα producing CD4+ T cells [2, 8]: decreased
